# In patent publication US20220193066A1, “QUINOLINE DERIVATIVE USED FOR COMBINATION TREATMENT OF SMALL CELL LUNG CANCER” (CHIA TAI TIANQING PHARMACEUTICAL GROUP CO., LTD., priority 2019, published 2022):
# How the values were obtained:
# Type in all cases: in vivo, human
# [1] = system: extensive-stage small cell lung cancer; experiment: Clinical study of anlotinib in combination with etoposide in extensive-stage small cell lung cancer after second-line failure (Example 3); conditions: anlotinib hydrochloride capsules 12 mg qd d1-14 in combination with etoposide soft capsules 100 mg qd d1-10, 21-day cycle
# Method: Patients with extensive-stage small cell lung cancer after the pathological diagnosis of small cell lung cancer and failure with second-line chemotherapy (having received two previous chemotherapy regimens) were administered with anlotinib in combination with etoposide.
# The administration regimens are detailed below.
# Etoposide soft capsules: once daily, oral administration before breakfast, 100 mg (by weight of etoposide comprised therein) each time, administered at d1-10 of each 21-day dosing cycle.
# Anlotinib hydrochloride capsules: once daily, oral administration before breakfast, 12 mg each time, administered at d1-14 of each 21-day dosing cycle.
# The interval between the two drugs was more than half an hour. If there was a missed dose, the interval needed to be confirmed that it was not shorter than 12 hours before the next dose, otherwise no more doses would be taken. During the administration, dosage adjustments could be made according to the degree of drug-related toxicity and possible therapeutic benefit of the patient. The dose could be adjusted to the following 2 levels for anlotinib: 10 mg and 8 mg. If a reduction of more than 2 dose levels was required, the treatment was discontinued. The dose of etoposide could be reduced to 50 mg. […]
# [2] = system: small cell lung cancer (including ED-SCLC and LD-SCLC); experiment: Clinical trial of EP or EC regimen (etoposide+cisplatin/carboplatin)+anlotinib in small cell lung cancer patients (Example 1)
# Excerpt: Patients who were pathologically diagnosed with small cell lung cancer (including ED-SCLC and LD-SCLC) with measurable lesions were divided into the following groups: two combination administration groups adopting a combination of either EP or EC regimen (etoposide+cisplatin/carboplatin)+anlotinib, and a control group adopting either EP or EC alone (etoposide+cisplatin/carboplatin). The administration regimens are detailed below.
# In the combination administration group, patients received etoposide: 100 mg/m^2, i.v., for 120 min, administered at d1-3 of each 21-day dosing cycle; cisplatin: 75 mg/m^2, or carboplatin: AUC 5, i.v., for 120 min, administered at d1 of each 21-day dosing cycle; anlotinib, 12 mg/day, administered orally on an empty stomach in the morning at d1-14 of each 21-day dosing cycle. After 4-6 dosing cycles of combination treatment, anlotinib was used for maintenance treatment: 12 mg/day, administered orally on an empty stomach in the morning at d1-14 of each 21-day dosing cycle until progressive disease.
# In the control group, patients received etoposide: 100 mg/m^2, i.v., for 120 min, administered at d1-3 of each 21-day dosing cycle; cisplatin: 75 mg/m^2 or carboplatin: AUC 5, i.v., for 120 min, administered at d1 of each 21-day dosing cycle.
# The observation indexes are as follows: primary endpoint: progression-free survival (PFS); secondary endpoint: objective response rate (ORR), overall survival (OS), disease control rate (DCR), safety, and tolerability.
# The clinical trial was implemented, and 31 patients were enrolled between February 2018 and October 2019.
# [3] = system: small cell lung cancer; experiment: Clinical study of anlotinib in combination with irinotecan in relapsed small cell lung cancer (Example 2); conditions: anlotinib hydrochloride capsule 12 mg qd po d1-14 in combination with irinotecan 60-80 mg/m^2 i.v. d1 and d8, q3w
# Excerpt: Patients who have been histopathologically and cytologically diagnosed with small cell lung cancer, have previously received 1 systemic chemotherapy adopting platinum-based chemotherapy regimens, and relapsed or failed after treatment, excluding patients with non-small cell lung cancer (including small cell and non-small cell mixed types), were divided into a combination administration group and a single-drug chemotherapy control group. The administration regimens are detailed below.
# Combination administration group: anlotinib hydrochloride capsule 12 mg qd po d1-14 and irinotecan 60-80 mg/m^2 i.v. d1 and d8; q3w, no more than 6 chemotherapy dosing cycles.
# Single-drug chemotherapy control group: irinotecan 60-80 mg/m^2 i.v. d1 and d8; q3w, no more than 6 chemotherapy dosing cycles.
# Patients who achieved complete response (CR), partial response (PR), and stable disease (SD) continued to be administered until progressive disease (PD), intolerable toxicity, or patients who required withdrawal or achieved progressive disease (PD) were discontinued. The efficacy evaluation observation indexes include progression-free survival (PFS), overall survival (OS), objective response rate (ORR), disease control rate (DCR), duration of response (DOR), quality of life score and drug safety.
# [4] = system: small cell lung cancer; experiment: Clinical study of anlotinib in combination with sintilimab in relapsed small cell lung cancer (Example 5); conditions: anlotinib hydrochloride capsules 12 mg qd d1-14 in combination with sintilimab 200 mg i.v. d1, 21-day cycle
# Method: Patients who have been histologically or cytologically confirmed pathologically diagnosed with small cell lung cancer, have previously received at least one systemic chemotherapy regimen and have relapsed were administered with anlotinib in combination with sintilimab. The administration regimens are detailed below.
# Anlotinib hydrochloride capsules: once daily, oral administration before breakfast, 12 mg each time, administered at d1-14 of each 21-day dosing cycle, consecutive 2-week treatment and 1-week interruption.
# Sintilimab: 200 mg, i.v. infusion, administered d1 of each 21-day dosing cycle.
# All patients continued for a treatment period of up to 12 months, or until progressive disease, development of an intolerable toxic response, withdrawal of informed consent, death, or other event requiring discontinuation of treatment specified in the protocol, whichever occurred first.
# The efficacy evaluation observation indexes include progression-free survival (PFS), overall survival (OS), objective response rate (ORR=CR+PR), disease control rate (DCR=CR+PR+SD) and drug safety.
# [5] = anlotinib 12 mg/day in combination with EP or EC regimen, 31 patients
# [6] = anlotinib 12 mg/day in combination with EP or EC regimen, of 31 patients
# [7] = combination of anlotinib and EP or EC regimen
smiles,measurement,setting,value
"COc1cc2c(Oc3ccc4[nH]c(C)cc4c3F)ccnc2cc1OCC1(N)CC1 [anlotinib, 1-[[[4-(4-fluoro-2-methyl-1H-indol-5-yl)oxy-6-methoxyquinolin-7-yl]oxy]methyl]cyclopropylamine]",clinical benefits,[1],had clinical benefits
same,disease control rate (DCR),[2]; [5],100%
same,objective response rate (ORR),[2]; [5],74.2%
same,patients with complete response (CR),[2]; [6],3 patients
same,patients with partial response (PR),[2]; [6],20 patients
same,patients with progressive disease (PD),[2]; [6],0 patients
same,median PFS (progression-free survival),"[2]; anlotinib 12 mg/day po d1-14 q21d in combination with EP or EC regimen (etoposide + cisplatin/carboplatin), then anlotinib maintenance, 31 patients",8.9 months
same,clinical efficacy,[2]; [7],good
same,safety,[2]; [7],good
same,clinical benefits,[3],had clinical benefits
same,clinical benefits,[4],had clinical benefits
same,progression-free survival to date,[4],up to 6 months
